Literature values as cited in patent US20010028878A1, “In vitro maturation of human oocytes in one day” (priority 1998, published 2001).

Test system: human oocytes
Details: presence of insulin in the culture medium; recent research

## insulin
  effect on the chance for successful pregnancy: negative effect
